Reference: US20240373849A1, “INSECT NEUROPEPTIDE ANALOGUES” (THE UNIVERSITY COURT OF THE UNIVERSITY OF GLASGOW, priority 2020, published 2024)
Values joined by “and” are separate entries in the source; they are usually repeats but may differ in a detail not shown here. Equal values may be shown once. Square brackets hold non-standard residues; d marks the D form. * marks the point of attachment. Guanidyl = -C(=N+Me2)NMe2 on the N-terminal amine (tetramethylguanidyl cap), CN(C)C(=[N+](C)C)*; Benzoyl(4-benzoyl) = O=C(c1ccccc1)c1ccc(C(=O)*)cc1; Palmitoyl = CCCCCCCCCCCCCCCC(=O)*; NMeA = CN[C@@H](C)C(=O)O

Columns and labels:
[1] = tested on: Drosophila suzukii larvae; assay: Drosophila suzukii larval feeding (Example 8; peptide screening); format: in vivo; parameters: key to D. suzukii (Sig Diff Grp): A indicates a significant difference in survival compared with control (blank).; B indicates a significant difference in survival compared with scrambled capa1.; C indicates a significant difference in survival compared with scrambled capa2; details: Peptide screening, Table 5; for D. suzukii (Mean% Lethality ± SD): blank control 20.33; for D. suzukii (Sig Diff Grp): difference in survival
Description: First to Fourth generations of peptides were produced with varying structures and tested for CAPA receptor agonist activity, and screened for lethality in vivo against D. suzukii and M. persicae as per methods in example 2 and example 8. The top performing peptides were selected and gave rise to the list of CAPA1 and CAPA2 peptides provided above in Table 1 which were then further tested in the following applied examples.
Peptides were tested at concentrations ranging from [10^−4 M] to [10^−7 M] in a final volume of 200 μl of 0.8% agarose containing 0.09% m-Cresol purple pH marker dye (Sigma) and 5% sucrose (Sigma).
Agarose was melted in dH2O, before addition of sucrose and dye. The agarose/dye solution was then allowed to cool to 60° C. 96 well plates (flat-bottomed 3596 TC-plates; Corning) containing 20 μl volumes of neuropeptide per well were prepared, and 180 μl agarose/dye solution dispensed into each well via a Distriman repetitive micro-pipettor (Gilson). Controls contained 20 μl dH2O as a ‘sham’ treatment with 180 μl of the 0.8% agarose/dye solution. Plates were agitated at 800 rpm, to ensure mixing, at 60° C. (Eppendorf Thermomixer C). Plates were then allowed to cool, and agarose/dye solution solidify, prior to use.
Each peptide was assayed with a minimum of 7 to maximum 9 late L2/early L3 Spotted wing Drosophila, Drosophila suzukii, (feeding) larvae per well, minimum n=8 wells per peptide concentration and a minimum n=12 control wells per plate. The selected larvae were first washed 2× in ice cold Drosophila Schneider's liquid medium (ThermoFisher) before insertion into wells to remove extraneous food. After complete insertion of all larvae the plates were covered with breathable sealing membrane for multi-well plates (Sigma).
Larvae were assayed for lethality after 48 hr exposure at 21° C. and findings recorded. During examination the assay plate was kept on ice, to reduce larval locomotor activity (wandering), and larvae in each well were examined using a binocular stereomicroscope (Zeiss).
The water control group was used to determine baseline lethality. Results for neuropeptide analogues were calculated as % lethality in the remaining population after adjustment for the baseline. Results are shown in Tables 7 and 8 below, and in FIG. 1.

[2] = tested on: bumblebees (Bombus terrestris); assay: Bumblebee acute oral toxicity test; format: in vivo
Description: Oral toxicity against bumblebees (Bombus terrestris) was determined as previously described:
OECD (2017), Test No. 247: Bumblebee, Acute Oral Toxicity Test, OECD Guidelines for the Testing of Chemicals, Section 2, OECD Publishing, Paris, https://doi.org/10.1787/9789264284128-en.
Example data are provided for peptides, AH56, AH257, AH259 in Tables 4, 5 below. […]
Data were acquired for: feeding behaviour—weight of liquid consumed pre- and post-treatment; lethality (days).
There was no negative impact on feeding behaviour from capa peptides. Acute bumblebee toxicity was also assessed for other peptide candidates including: AH270, PEG270. Overall, capa peptides are bee safe.

[3] = Table 11, individual bees, peptide 1 × 10 − 5M or Spirotetramat 25 uM

Row | Compound | D. suzukii (Mean% Lethality ± SD) [1] [%] | D. suzukii (Sig Diff Grp) [1] | also measured
1 | Palmitoyl-LVAFPRV-NH2 (SMILES CCCCCCCCCCCCCCCC(=O)N[C@@H](CC(C)C)C(=O)N[C@H](C(=O)N[C@@H](C)C(=O)N[C@@H](Cc1ccccc1)C(=O)N1CCC[C@H]1C(=O)N[C@@H](CCCNC(=N)N)C(=O)N[C@H](C(N)=O)C(C)C)C(C)C) [AH59] | 44.13 | A | –
2 | 4-Benzoyl benzoic-LVAFPRV-NH2 ({Benzoyl(4-benzoyl)}-LVAFPRV-NH2; SMILES CC(C)C[C@H](NC(=O)c1ccc(C(=O)c2ccccc2)cc1)C(=O)N[C@H](C(=O)N[C@@H](C)C(=O)N[C@@H](Cc1ccccc1)C(=O)N1CCC[C@H]1C(=O)N[C@@H](CCCNC(=N)N)C(=O)N[C@H](C(N)=O)C(C)C)C(C)C) [AH55] | 54.50 | – | –
3 | Guanidyl-LV-(Me)A-FPRV-NH2 (Guanidyl-LV[NMeA]FPRV-NH2; SMILES CC(C)C[C@H](NC(N(C)C)=[N+](C)C)C(=O)N[C@H](C(=O)N(C)[C@@H](C)C(=O)N[C@@H](Cc1ccccc1)C(=O)N1CCC[C@H]1C(=O)N[C@@H](CCCNC(=N)N)C(=O)N[C@H](C(N)=O)C(C)C)C(C)C) [AH258] | 47.75 | A | –
4 | CCOC(=O)OC1=C(c2cc(C)ccc2C)C(=O)N[C@]12CC[C@@H](OC)CC2 [Spirotetramat, reference compound] | – | – | Liquid post exposure (weight), Mean ([2]; Table 11, group mean, n=10): 1.109 g; liquid consumed per day post exposure, Mean ([2]; Table 11, group mean, n=10): 0.2773 g; Liquid post exposure (weight) [2, 3]: 0.7878 g and 1.2332 g and 0.2963 g and 1.7853 g and 1.2062 g and 2.1130 g and 0.6196 g and 0.7732 g and 1.3842 g and 0.8924 g; days alive [2, 3]: 4 days; liquid consumed per day post exposure [2, 3]: 0.1970 g and 0.3083 g and 0.0741 g and 0.4463 g and 0.3016 g and 0.5283 g and 0.1549 g and 0.1933 g and 0.3461 g and 0.2231 g
5 | H-Nle-LYAFPRV-NH2 [AH51] | 38.63 | A | –
6 | 4-Benzoyl benzoic-LYAFPRV-NH2 ({Benzoyl(4-benzoyl)}-LYAFPRV-NH2; SMILES CC(C)C[C@H](NC(=O)c1ccc(C(=O)c2ccccc2)cc1)C(=O)N[C@@H](Cc1ccc(O)cc1)C(=O)N[C@@H](C)C(=O)N[C@@H](Cc1ccccc1)C(=O)N1CCC[C@H]1C(=O)N[C@@H](CCCNC(=N)N)C(=O)N[C@H](C(N)=O)C(C)C) [AH49] | 41.13 | A | –
7 | Ac-LVAFPRV-NH2 [AH33] | 43.50 | A | –
8 | O=[N+]([O-])NC1=NCCN1Cc1ccc(Cl)nc1 [imidacloprid, Imidacloprid, reference compound] | – | – | lethality of bumblebees ([2]; 28.3 uM, on day 1): 100%; dead? ([2]; Table 10, individual bees, peptide ×10−5M or imidacloprid 28.3 uM in 50% sucrose, 0.1% ATPlus): 1; Est weight sucrose consumed post testing/day ([2]; individual bees, peptide ×10−5M or imidacloprid 28.3 uM in 50% sucrose, 0.1% ATPlus): 0.0822 grams/day and 0.0000 grams/day and 0.0495 grams/day and 0.0562 grams/day and 0.2205 grams/day and 0.4394 grams/day; Feeding impacted? (+ve feeding increased post pep, −ve feeding decreased post pep) ([2]; individual bees, post minus pre testing sucrose consumption): −0.1179 grams/day and −0.1209 grams/day and −0.1306 grams/day and −0.3025 grams/day and −0.1495 grams/day and −0.1412 grams/day and 0.0704 grams/day and −0.3396 grams/day and 0.1955 grams/day and −0.2914 grams/day and −0.3507 grams/day; T-test outcome, sucrose consumed Pre vs Post ([2]; per treatment group): Feeding sig reduced
9 | Ac-LYAFPRV-NH2 [AH32] | 41.50 | A | –
